Data set [1] has as its system human breast cancer cells (MCF-7). In words: MTT cytotoxicity assay, MCF-7. The data set is classed as cell-based. The note with it: MCF-7, MTT, 48 h. The text has this: (§1) In the study, five cancer cell lines (human colon cancer cells (HT-29), gastric cancer cells (BGC-823), cervical cancer cells (Hela), human breast cancer cells (MCF-7), and human lung cancer cells A549)), and two normal cell lines (human gastric epithelial cells (GES-1) and human ovarian epithelial cells (IOSE144)) were used for the evaluation of biological activity. IOSE144 cells were donated by Professor Piao Huri of Yanbian University, all other cells were purchased from the American Type Culture Collection (ATCC, Manassas, VA, USA). Cells were cultured in Dulbecco’s Modified Eagle’s Medium (DMEM), supplemented with 10% heat-inactivated fetal bovine serum (FBS), 1% 100 μg/mL penicillin and 100 μg/mL streptomycin in a humidified atmosphere containing 5% CO2 at 37 °C. Cell viability was measured using the MTT assay. Cells were seeded in 96 well microtiter plates in a volume of 100 μL medium. All compounds tested were dissolved and further diluted in DMSO. After overnight incubation, cells were treated with different test concentrations or carrier solvents alone in a final volume of 100 μL with five replicates each. […] Cells were treated with compound (80, 40, 20, 10, 5 μM) for 48 h. Then, 10 μL of MTT (5 mg/mL) was added to each well and the cells were incubated at 37 °C in the dark for 4 h. Supernatants were removed and formazan crystals were dissolved in DMSO (100 μL/well). The solution was agitated for 10 min, and the absorbance was measured at 490 nm using microplate reader (imark, BIO-RAD, Hercules, CA, USA) to calculate the 50% inhibitory concentration (IC50). Ginsenoside-Rg3, panaxadiol sapogenin (PD), AD-2 (25-OH-PPD) and AD-1 (25-OCH3-PPD) were used as standard reference compounds.

The subject of data set [2] is human ovarian epithelial cells (IOSE144). In words: MTT cytotoxicity assay, IOSE144 normal cells. It is filed as cell-based. Conditions: IOSE144 normal cells, MTT, 48 h.
From the text: as §1

Data set [3] concerns human lung cancer cells A549. In words: MTT cytotoxicity assay, A549. It is filed as cell-based. Conditions: 48 h.
From the text: as §1

The test system of data set [4] is gastric cancer cells (BGC-823). Put plainly: MTT cytotoxicity assay, BGC-823. It is filed as cell-based, human. The note with it: BGC-823, MTT, 48 h.
From the text: as §1

In data set [5] the test system is human gastric epithelial cells (GES-1). Put plainly: MTT cytotoxicity assay, GES-1 normal cells. The data set is classed as cell-based. The note with it: GES-1 normal cells, MTT, 48 h.
From the text: as §1

Data set [6] has as its system cervical cancer cells (Hela). Put plainly: MTT cytotoxicity assay, Hela. The data set is classed as cell-based, human. Conditions: 48 h.
From the text: as §1

For data set [7], the system named is human colon cancer cells (HT-29). In words: MTT cytotoxicity assay, HT-29. The data set is classed as cell-based. The note with it: HT-29, MTT, 48 h.
From the text: as §1

For the compound `CC(C)=CCC[C@](C)(O)[C@H]1CC[C@]2(C)[C@@H]1[C@H](O)C[C@@H]1[C@@]3(C)CC[C@H](O[C@@H]4O[C@H](CO)[C@@H](O)[C@H](O)[C@H]4O[C@@H]4O[C@H](CO)[C@@H](O)[C@H](O)[C@H]4O)C(C)(C)[C@@H]3CC[C@]12C` [Rg3, Ginsenoside-Rg3, reference compound], the IC50 in data set [1] is 92.1 ± 2.36 µM; in data set [2] it was above 100 µM; in data set [3], above 100 µM; in data set [4], above 100 µM; in data set [5], above 100 µM; in data set [6], 85.2 ± 1.59 µM. This compound came in with a concentration for half-maximal inhibition (IC50) in data set [7] above 100 µM.

(Values after PMC6278399, “Synthesis and Anticancer Activity Evaluation of Hydrolyzed Derivatives of Panaxnotoginseng Saponins” (Molecules, 2018).)
